The values that follow come from patent US8563587B2, “Methods and compositions for treating fish diseases” (HaloSource, Inc., priority 2006, dated 2013).

Series [1] in a line: TAC measured in the fish tanks of Comparative Example 2. The conditions noted are these: 10 minutes after addition of 300 mg MC in 95% EtOH diluted to 100 mL. The format is physicochemical. On the procedure:
(§1) The fish were allowed to acclimate with their surroundings for a period of three days. For the experimental tanks, 300 mg of MC dissolved in 30 g 95% EtOH followed by dilution to 100 mLs total volume with DI water was added. For the control tanks 30 g 95% EtOH diluted to 100 mLs total volume with DI water was added. TAC was measured in the experimental tanks 10 minutes after the addition of the MC solution: HEX-2=7.1 ppm TAC; HEX-4=6.0 ppm TAC. Within three hours, all 11 of the Glow Lite Tetras were dead and 3 out of 5 Black Skirt Tetras were dead.
(§2) The fish were allowed to acclimate with their surroundings for a period of 4 hours. All tanks began with 0 ppm TAC. Tablets of MC made from 0.11 g MC pressed with 0.89 g MgSO4, with a ⅝″-diameter tablet as described in EXAMPLE 1 were added to each tank as follows: • (a) Hex-1: 5 Black Skirt Tetras—3 tablets on day 1, 4 tablets on day 2 • (b) Hex-3: 5 Glow Lite Tetras—3 tablets on day 1, 3 tablets on day 2 • (c) Hex-4: 5 Glow Lite Tetras—2 tablets on day 1, 2 tablets on day 2
(§3) Tanks Hex-1 and 2 measured above 6 ppm TAC each day, but took approximately three hours to reach a TAC above 6 ppm. HEX 4 rose to a TAC level of 4.1 ppm TAC within the first day. No fish died throughout the 48-hour experiment.

Series [2] has as its system GlowLite (Hemigrammus erthrozonus). As to the kind of experiment: Fish mortality, MC in ethanol vs MC tablets (Comparative Example 2). The conditions noted are these: of 11 Glow Lite Tetras, within three hours; 300 mg MC in 95% EtOH/water added at once, 6.0 ppm TAC. The format is in vivo. On the procedure:
(§4) A study was performed in which GlowLite (Hemigrammus erthrozonus) and Black Skirt Tetras (Gymnocorymbus ternetzi) were subjected to treatment with MC dissolved in 95% Ethanol (then diluted with water) and another set of the same fish subjected to MC tablets as described in EXAMPLE 1 dosed to equal levels of MC.
(§5) Part 1: Four 5-gallon hexagonal fish tanks were set up as follows: • (a) Hex-1: 5 Black Skirt Tetras (Control Tank—0 ppm TAC) • (b) Hex-2: 5 Black Skirt Tetras (Experimental Tank) • (c) Hex-3: 11 Glow Lite Tetras (Control Tank—0 ppm TAC) • (d) Hex-4: 11 Glow Lite Tetras (Experimental Tank)
as §1
(§6) Part 2: Three 5-gallon hexagonal fish tanks were set up as follows: • (a) Hex-1: 5 Black Skirt Tetras • (b) Hex-3: 5 Glow Lite Tetras • (c) Hex-4: 5 Glow Lite Tetras
as §2, §3

The subject of series [3] is Black Skirt Tetras (Gymnocorymbus ternetzi). The description is as above. It counts as in vivo. The conditions noted are these: 300 mg MC in 95% EtOH/water added at once, 7.1 ppm TAC. On the procedure:
as §4, §5, §1, §6, §2, §3

With `CC1(C)NC(=O)C(C)(C)N1Cl` [MC, 1-Chloro-2,2,5,5-tetramethylimidazolidin-4-one], the “TAC in experimental tank” value in series [1] (HEX-2 (Black Skirt Tetras)) is recorded as 7.1 ppm TAC; in series [1] (HEX-4 (Glow Lite Tetras)), 6.0 ppm TAC. Moreover, the dead fish in series [2] was 11; in series [3] (within 24 hours), “the remainder of the Black Skirt Tetras were dead”; in series [3] (within three hours) it was 3 out of 5.
